20 compounds from US20140057895A1, “INDAZOLE- AND PYRROLOPYRIDINE-DERIVATIVE AND PHARMACEUTICAL USE THEREOF” (priority 2011, published 2014) can be followed below.

One may read the IC50 as the concentration at which inhibition is half-maximal. Broadly, the EC50 is the concentration giving half of the maximal effect.

One test concerns the target T1, 5-HT4 receptor (Cavia porcellus, UniProt O70528).
T1 construct: striatum was isolated which was cryopreserved at −80° C. until use; from tissue; host or cells: guinea pig (Slc-Hartley) striatum membranes
In words: Test Example 3: Guinea pig 5-HT4 receptor binding assay, [3H]-GR113808, striatum membranes (Table 98). Particulars: Guinea pig 5-HT4 receptor binding assay, [3H]-GR113808, striatum membranes; mean value of each group; read-out: IC50. Here is the method:
The guinea pig 5-HT4 receptor binding assay and preparations of receptor membrane preparations herein were carried out according to a method of Grossman et al. [see, British J. Pharmacol., (1993) 109, 618].
Slc-Hartley guinea pigs (body weight 300 g to 400 g) were decapitated to remove brain rapidly, and striatum was isolated which was cryopreserved at −80° C. until use. To the obtained tissues were added fifteen fold of Hepes buffer (50 mM, pH 7.4, 4° C.), and the mixture was homogenized by Teflon (trademark) homogenizer and centrifuged at 48,000×g (4° C.) for 15 minutes. To the resulting precipitate was added Hepes buffer (1 ml) to 30 mg by wet weight of tissues, and the mixture was suspended to give receptor membrane preparations.
To an assay tube were added 0.1 nM [^3H]-GR113808 {chemical name: [1-[2-(methylsulfonylamino) ethyl]-4-piperidinyl]methyl 1-methylindole-3-carboxylate}, receptor membrane preparations, and Hepes buffer (50 mM, pH 7.4, 4° C., 1 ml) containing test compounds or 30 μM serotonin; and the mixture was incubated at 37° C. for 30 minutes. On quenching the reaction, the mixture was rapidly filtered on whatman GF/B filter, which was presoaked in 0.1% polyethyleneimine for 1 hour, by using Brandel cell Harvester, and washed with ice-cooled 50 mM Tris-HCl (pH 7.7, 4 ml) three times. To the filter after filtration was added a liquid scintillator (Ecoscint), and then a radioactivity was determined by a liquid scintillation counter.
50% Inhibition concentrations (IC50) were determined from inhibition rates of test compounds to specific bindings which were obtained by subtracting nonspecific bindings from total binding amounts of [^3H]-GR113808. […]

Another test addresses T2, human 5-HT4b receptor (Homo sapiens, UniProt Q13639).
T2 construct: expressed in transfected cells; host or cells: CHO cells (G418 selection)
The test is described as follows: Test Example 4: Serotonin 4 (5-HT4) receptor agonist activity assay, cAMP HTRF in CHO cells (Table 100). Particulars: mean value; for Emax: CHO, 0.25 h, intrinsic activity, maximal activity of 5-HT defined as 100%, read-out: IA (%); for EC50: concentration showing 50% of IA. Type of test: cell-based. Here is the method: The cAMP measurement test used herein was carried out by using CISBIO HTRF (trademark) cAMP Hirange kit according to the manufacturer's instructions attached therewith.
CHO cells expressing human 5-HT4b receptor were incubated in Medium 1 [DMEM/1% NEAA, 1% penicillin/streptomycin (P/S), 0.2 mg/mL GENETICIN (G418), 10% FBS] at 37° C. under 5% CO2 condition. Then, the cells were put into Medium 2 (DMEM/10000 cut FBS, G-418, P/S, NEAA) for 1 to 2 hours, and collected by treating with trypsin containing EDTA. The collected cells were suspended in Assay Buffer 1 [100 mM Hanks/HEPES buffer (pH 7.4)], the suspended cells were mixed with the testing compound on 384-well plates, and the cells were incubated at 31° C. for 15 minutes. To the cells were added cAMP-cryptate solution and cAMP-d2 solution, and they were incubated at room temperature for 1 hour. Then, time-resolved fluorescence was measured by En Vision (excitation wavelength: 330 nm, fluorescence wavelength: 620/665 nm).
An intrinsic activity of the compound [IA (%)] and a concentration showing 50% of IA [EC50 (nM)] were calculated from the obtained results. In particular, the intrinsic activity (IA) was calculated on the basis of the maximal activity of 5-HT (measured from 10^−11 M to 10^−7 M) defined as 100%.
In the following table, the compounds used in the test are shown in numbers which correspond to the Example numbers above where the preparations of the compounds are described.
(In TR-FRET formats the signal depends on donor and acceptor labels being close together.)

Structures can show the parent of a compound that is named as a salt. Bounds are passed on as bounds.

T1 sequence (O70528 whole entry): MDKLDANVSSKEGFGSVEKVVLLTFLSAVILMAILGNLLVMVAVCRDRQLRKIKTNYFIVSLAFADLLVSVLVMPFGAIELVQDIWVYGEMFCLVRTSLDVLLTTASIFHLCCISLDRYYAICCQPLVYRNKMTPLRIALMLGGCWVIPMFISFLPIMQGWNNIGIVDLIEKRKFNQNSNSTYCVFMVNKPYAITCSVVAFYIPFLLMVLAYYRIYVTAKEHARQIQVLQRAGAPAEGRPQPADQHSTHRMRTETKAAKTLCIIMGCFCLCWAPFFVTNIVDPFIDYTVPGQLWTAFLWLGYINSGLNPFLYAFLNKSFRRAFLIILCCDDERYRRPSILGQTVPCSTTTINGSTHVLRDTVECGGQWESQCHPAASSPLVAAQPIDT
T2 sequence (Q13639 whole entry): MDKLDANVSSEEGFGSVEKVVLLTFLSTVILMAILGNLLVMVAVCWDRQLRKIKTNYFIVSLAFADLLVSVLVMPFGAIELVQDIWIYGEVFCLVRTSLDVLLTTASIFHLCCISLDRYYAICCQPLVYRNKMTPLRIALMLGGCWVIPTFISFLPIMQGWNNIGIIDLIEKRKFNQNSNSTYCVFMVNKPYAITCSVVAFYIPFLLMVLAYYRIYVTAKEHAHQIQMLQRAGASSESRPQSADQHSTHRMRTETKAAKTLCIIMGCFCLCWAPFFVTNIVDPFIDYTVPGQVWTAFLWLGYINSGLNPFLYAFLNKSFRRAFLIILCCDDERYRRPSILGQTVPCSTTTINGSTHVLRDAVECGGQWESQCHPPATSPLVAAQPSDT

Take `CCc1nn(-c2noc(C3CCN(C[C@@H]4CCN(C(C)=O)C4)CC3)n2)c2c(F)cccc12` [Example 201, 1-[(3S)-3-({4-[3-(3-ethyl-7-fluoro-1H-indazol-1-yl)-1,2,4-oxadiazol-5-yl]piperidin-1-yl}methyl)pyrrolidin-1-yl]ethanone]: the IC50 on 5-HT4 receptor was less than 20 nM. On human 5-HT4b receptor, the Emax is 39.7% and the EC50 was 6.8 nM.

With `CCc1nn(-c2noc(C3CCN(C[C@@H]4CCN(C(=O)COC)C4)CC3)n2)c2c(F)cccc12` [Example 202, 1-[(3S)-3-({4-[3-(3-ethyl-7-fluoro-1H-indazol-1-yl)-1,2,4-oxadiazol-5-yl]piperidin-1-yl}methyl)pyrrolidin-1-yl]-2-methoxyethanone], the IC50 at 5-HT4 receptor is less than 20 nM. In addition, on human 5-HT4b receptor, the Emax was 39% and the EC50 amounted to 5.8 nM.

In the case of `CCc1nn(-c2noc(C3CCN(C[C@@H]4CCN(S(C)(=O)=O)C4)CC3)n2)c2c(F)cccc12` [Example 203, 3-ethyl-7-fluoro-1-[5-(1-{[(3S)-1-(methylsulfonyl)pyrrolidin-3-yl]methyl}piperidin-4-yl)-1,2,4-oxadiazol-3-yl]-1H-indazole], the IC50 on 5-HT4 receptor is less than 20 nM. At human 5-HT4b receptor, the Emax turned out to be 71.8% and the EC50 was 1.1 nM.

For `CCc1nn(-c2noc(C3CCN(C[C@H]4CCN(C(C)=O)C4)CC3)n2)c2c(F)cccc12` [Example 209, 1-[(3R)-3-({4-[3-(3-ethyl-7-fluoro-1H-indazol-1-yl)-1,2,4-oxadiazol-5-yl]piperidin-1-yl}methyl)pyrrolidin-1-yl]ethanone hydrochloride], the IC50 on 5-HT4 receptor was less than 20 nM. Besides, on human 5-HT4b receptor, the Emax amounted to 79.1% and it took 3.7 nM to reach a half-maximal effect (EC50).

In the case of `CCc1nn(-c2noc(C3CCN(C[C@H]4CCN(C(=O)COC)C4)CC3)n2)c2c(F)cccc12` [Example 210, 1-[(3R)-3-({4-[3-(3-ethyl-7-fluoro-1H-indazol-1-yl)-1,2,4-oxadiazol-5-yl]piperidin-1-yl}methyl)pyrrolidin-1-yl]-2-methoxyethanone hydrochloride], the IC50 on 5-HT4 receptor is less than 20 nM. Moreover, at human 5-HT4b receptor, the Emax amounted to 68.6% and the EC50 is 5 nM.

`CCc1nn(-c2noc(C3CCN(C[C@H]4CCN(S(C)(=O)=O)C4)CC3)n2)c2c(F)cccc12` [Example 216, 3-ethyl-7-fluoro-1-[5-(1-{[(3R)-1-(methylsulfonyl)pyrrolidin-3-yl]methyl}piperidin-4-yl)-1,2,4-oxadiazol-3-yl]-1H-indazole]: the IC50 on 5-HT4 receptor was less than 20 nM. For the same compound, at human 5-HT4b receptor, the Emax came out at 62.3% and the EC50 amounted to 4.6 nM.

Regarding `CC(=O)N1CC(CN2CCC(c3nc(-n4nc(C(C)C)c5cccc(F)c54)no3)CC2)C1` [Example 219, 1-{3-[(4-{3-[7-fluoro-3-(propan-2-yl)-1H-indazol-1-yl]-1,2,4-oxadiazol-5-yl}piperidin-1-yl)methyl]azetidin-1-yl}ethanone hydrochloride], on 5-HT4 receptor, the concentration for half-maximal inhibition (IC50) was less than 20 nM. For the same compound, on human 5-HT4b receptor, the Emax was 96.9% and a half-maximal response (EC50) required 2.8 nM.

For the compound `COC(=O)N1CC(CN2CCC(c3nc(-n4nc(C(C)C)c5cccc(F)c54)no3)CC2)C1` [Example 220, methyl 3-[(4{3-[7-fluoro-3-(propan-2-yl)-1H-indazol-1-yl]-1,2,4-oxadiazol-5-yl}piperidin-1-yl)methyl]azetidine-1-carboxylate hydrochloride], the IC50 at 5-HT4 receptor is less than 20 nM. Also, at human 5-HT4b receptor, the Emax amounted to 92.4% and the midpoint of the response, the EC50, lay at 4.8 nM.

As for `COCC(=O)N1CC(CN2CCC(c3nc(-n4nc(C(C)C)c5cccc(F)c54)no3)CC2)C1` [Example 221, 1-{3-[(4-{3-[7-fluoro-3-(propan-2-yl)-1H-indazol-1-yl]-1,2,4-oxadiazol-5-yl}piperidin-1-yl)methyl]azetidin-1-yl}-2-methoxyethanone hydrochloride], the IC50 on 5-HT4 receptor was less than 20 nM. On human 5-HT4b receptor, the Emax amounted to 86.1% and the EC50 turned out to be 6.1 nM.

Consider `CCc1nn(-c2noc(C3CCN(CC4CN(C(C)=O)C4)CC3)n2)c2c(F)cccc12` [Example 223, 1-[3-({4-[3-(3-ethyl-7-fluoro-1H-indazol-1-yl)-1,2,4-oxadiazol-5-yl]piperidin-1-yl}methyl)azetidin-1-yl]ethanone hydrochloride], for which the IC50 on 5-HT4 receptor was less than 20 nM. For the same compound, on human 5-HT4b receptor, the Emax stood at 72.7% and the response was half-maximal at 3.4 nM (EC50).

Consider `COCC(=O)N1CCC(N2CCC(c3nc(-n4nc(C(C)C)c5cccc(F)c54)no3)CC2)CC1` [Example 233, 1-(4-{3-[7-fluoro-3-(propan-2-yl)-1H-indazol-1-yl]-1,2,4-oxadiazol-5-yl}-1,4′-bipiperidin-1′-yl)-2-methoxyethanone hydrochloride], for which the IC50 on 5-HT4 receptor is less than 20 nM. For the same compound, at human 5-HT4b receptor, the Emax amounted to 93.5% and a half-maximal effect (EC50) was put at 2.9 nM.

Turning to `CCc1nn(-c2noc(C3CCN(C4CCN(C(=O)COC)CC4)CC3)n2)c2c(F)cccc12` [Example 237, 1-{4-[3-(3-ethyl-7-fluoro-1H-indazol-1-yl)-1,2,4-oxadiazol-5-yl]-1,4′-bipiperidin-1′-yl}-2-methoxyethanone hydrochloride], at 5-HT4 receptor, the IC50 was less than 20 nM. Moreover, at human 5-HT4b receptor, the Emax was 51.9% and it took 9.7 nM to reach a half-maximal effect (EC50).

Take `CCc1nn(-c2noc(C3CCN(C4CCN(S(C)(=O)=O)CC4)CC3)n2)c2c(F)cccc12` [Example 241, 4-[3-(3-ethyl-7-fluoro-1H-indazol-1-yl)-1,2,4-oxadiazol-5-yl]-1′-(methylsulfonyl)-1,4′-bipiperidine]: at 5-HT4 receptor, the IC50 is less than 20 nM. Besides, on human 5-HT4b receptor, the Emax worked out at 58.8% and the EC50 stood at 3.2 nM.

With `CCc1nn(-c2noc(C3CCN(C[C@H]4CCN(C(=O)CO)C4)CC3)n2)c2c(F)cccc12` [Example 247, 1-[(3R)-3-({4-[3-(3-ethyl-7-fluoro-1H-indazol-1-yl)-1,2,4-oxadiazol-5-yl]piperidin-1-yl}methyl)pyrrolidin-1-yl]-2-hydroxyethanone], on 5-HT4 receptor, the IC50 is less than 20 nM. Further, at human 5-HT4b receptor, the Emax was 79% and a half-maximal effect (EC50) was put at 12.7 nM.

Turning to `CC(C)c1nn(-c2noc(CCCN3CCCCC3)n2)c2c(F)cccc12` [Example 394, 7-fluoro-1-{5-[3-(piperidin-1-yl)propyl]-1,2,4-oxadiazol-3-yl}-3-(propan-2-yl)-1H-indazole], the IC50 on 5-HT4 receptor was less than 20 nM. On human 5-HT4b receptor, the Emax turned out to be 101% and the EC50 turned out to be 3.1 nM.

Take `CC(=O)N1CCC(N2CCC(c3nc(-n4nc(C(C)C)c5c(O)ccc(F)c54)no3)CC2)CC1` [Example 555, 1-(4-{3-[7-fluoro-4-hydroxy-3-(propan-2-yl)-1H-indazol-1-yl]-1,2,4-oxadiazol-5-yl}-1,4′-bipiperidin-1′-yl)ethanone]: the IC50 on 5-HT4 receptor amounted to 24.9 nM.

With `CC(C)c1nn(-c2noc(C3CCN(C4CCN(C(=O)C(=O)O)CC4)CC3)n2)c2c(F)cccc12` [Example 557, potassium (4-{3-[7-fluoro-3-(propan-2-yl)-1H-indazol-1-yl]-1,2,4-oxadiazol-5-yl}-1,4′-bipiperidin-1′-yl)(oxo)acetate], the IC50 on 5-HT4 receptor turned out to be 127 nM.

As to `CCCCN1CCC(c2cnc(-n3nc(C(C)C)c4cccc(F)c43)[nH]2)CC1` [Example 562, 1-[5-(1-butylpiperidin-4-yl)-1H-imidazol-2-yl]-7-fluoro-3-(propan-2-yl)-1H-indazole], the IC50 at 5-HT4 receptor amounted to 478 nM.

On to `CCCCN1CCC(c2cnc(-n3nc(C(C)C)c4cccc(F)c43)s2)CC1` [Example 563, 1-[5-(1-butylpiperidin-4-yl)-1,3-thiazol-2-yl]-7-fluoro-3-(propan-2-yl)-1H-indazole], for which the IC50 at 5-HT4 receptor came to 222 nM.

With `CCCCN1CCC(c2ncc(-n3nc(C(C)C)c4cccc(F)c43)s2)CC1` [Example 564, 1-[2-(1-butylpiperidin-4-yl)-1,3-thiazol-5-yl]-7-fluoro-3-(propan-2-yl)-1H-indazole], on 5-HT4 receptor, the IC50 was 653 nM.
